Columns and labels:
[1] = Moisture absorption under ambient atmosphere (Karl Fisher method); format: physicochemical; details: kept under ambient atmosphere for 2 days
Source text: Among these compounds, compounds having higher hygroscopic properties may absorb moisture when kept under ambient atmosphere to form substances represented by the following formula: [drawing 15] wherein R1, R2, R3, R4, R5, R6, k, l, and Y are the same as those defined above; symbol "a" represents 0 or an arbitrary integer or represents an arbitrary fraction; and symbol "b" represents an arbitrary integer or an arbitrary fraction. For example, 3.3% weight increase was observed by Karl Fisher method after N-{5-(1-imidazolyl)-2-methoxyphenyl}methyl-N-(1-pentyl)-N'-[2-{3-(4-phenyl-1-piperazinyl)propoxy}-6-methylphenyl]urea dihydrochloride obtained in Example 3 was kept under ambient atmosphere for 2 days.

[2] = system: high cholesterol fed WISTAR male rats (total cholesterol in the serum); assay: Cholesterol reduction activity in high cholesterol fed rats; format: in vivo, rat (WISTAR); details: Rattus norvegicus, once a day for 5 days, 3.5 hours after final administration, probit analysis
Experimental: Cholesterol Reduction Activity in High Cholesterol Fed Rats
6-Week old WISTAR male rats were fed with high cholesterol solid feedstuff (Oriental Kobo Co., Ltd., 1% cholesterol, 0.5% cholic acid). Each group consisted of seven rats was compulsorily administered with 0.2% aqueous solution of a test compound (compound of Example 3) once a day at a dose of 1 mg/kg, 3 mg/kg, 10 mg/kg, or 30 mg/kg for 5 days. One group consisted of seven rats was fed with the same high cholesterol feedstuff and used as a control group. After 3.5 hours from the final administration, blood was collected from the abdominal aorta and the total cholesterol in the serum was measured. The reduction rate of total cholesterol was represented as a ratio between a control group not administered with the drug (seven rats) and examined by the probit analysis.

ACAT of HepG2 cells = target: T1, ACAT of HepG2 cells (Homo sapiens, UniProt P35610); assay: Inhibitory activity against ACAT of HepG2 cells derived from human liver cancer cells; format: cell-based; details: radio-labelled oleic acid/BSA complex, cholesterol oleate produced
T1 construct: endogenous in cells; host or cells: HepG2
T1 sequence (P35610 1-550): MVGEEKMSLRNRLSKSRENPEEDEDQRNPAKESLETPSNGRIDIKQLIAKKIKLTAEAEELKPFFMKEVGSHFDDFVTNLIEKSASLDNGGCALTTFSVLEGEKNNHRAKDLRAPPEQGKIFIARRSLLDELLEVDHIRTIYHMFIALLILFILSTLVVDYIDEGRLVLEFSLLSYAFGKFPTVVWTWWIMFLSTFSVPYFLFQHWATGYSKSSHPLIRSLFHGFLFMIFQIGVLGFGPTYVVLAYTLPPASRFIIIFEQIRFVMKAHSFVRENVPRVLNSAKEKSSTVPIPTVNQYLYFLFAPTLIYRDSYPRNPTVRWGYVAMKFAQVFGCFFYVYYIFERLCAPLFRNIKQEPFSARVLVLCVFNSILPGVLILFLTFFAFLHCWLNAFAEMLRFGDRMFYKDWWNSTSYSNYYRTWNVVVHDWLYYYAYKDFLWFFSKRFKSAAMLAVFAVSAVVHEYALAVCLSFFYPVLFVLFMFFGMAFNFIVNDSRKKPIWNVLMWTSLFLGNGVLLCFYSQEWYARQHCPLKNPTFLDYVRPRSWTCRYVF
Experimental: Inhibitory Activity against ACAT of HepG2 cells Derived from Human Liver Cancer Cells Inhibitory activities of the compounds of the present invention against ACAT were measured by the method described below. HepG2 cells derived from human liver cancer cells were used for the measurement of the ACAT activity. A complex of radio-labelled oleic acid and bovine serum albumin was added to a culture of the cells, and the activity was measured by observing the amount of radio-labelled cholesterol oleate produced from the radio-labelled oleic acid in the cells.

weight increase (moisture absorption) [1]: 3.3%
IC50 (ACAT of HepG2 cells): 108 nM
Structure (SMILES): CCCCCN(Cc1cc(-n2ccnc2)ccc1OC)C(=O)Nc1c(C)cccc1OCCCN1CCN(c2ccccc2)CC1.Cl.Cl [Example 3, N-{5-(1-imidazolyl)-2-methoxyphenyl}methyl-N-(1-pentyl)-N'-[2-{3-(4-phenyl-1-piperazinyl)propoxy}-6-methylphenyl]urea dihydrochloride]
ED10 ([2]; 10% reduction of serum total cholesterol vs control, read-out: Dose of test compound for total cholesterol reduction rate 10%): 1.9 mg/kg
ED20 ([2]; 20% reduction of serum total cholesterol vs control, read-out: Dose of test compound for total cholesterol reduction rate 20%): 3.6 mg/kg
ED25 ([2]; 25% reduction of serum total cholesterol vs control, read-out: Dose of test compound for total cholesterol reduction rate 25%): 4.6 mg/kg
ED30 ([2]; 30% reduction of serum total cholesterol vs control, read-out: Dose of test compound for total cholesterol reduction rate 30%): 5.7 mg/kg
ED50 ([2]; 50% reduction of serum total cholesterol vs control, read-out: Dose of test compound for total cholesterol reduction rate 50%): 12.1 mg/kg
